Assay results as given in patent US4570006A, “Amidine compound, process for producing same and anti-complement agent comprising same” (Torii & Co. Ltd., priority 1981, dated 1986).

What was measured:
complement = assay: Inhibition of complement mediated hemolysis; format: cell-based
Method: The complement mediated hemolysis is widely used as a means to determine the titration of complement. The principle of this method is based on the fact that hemolysis if caused by the activation of complement, when the latter is added to a complex (immune complex) of erythrocytes and the antibody thereof. The degree of hemolysis varies in proportion to the amount of complement added. Therefore, when a known amount of complement admixed with a Cl esterase inhibitor is used, the hemolysis must be suppressed in proportion to the inhibitory activity.
The anti-Cl esterase (Clr, Cls) activity was determined according to the method of Okamura et al. [K. Okamura, M. Muramatsu and B. Fujii, Biochem. Biophys. […] The figures in Table 2 have the following meanings: […]

Cls = target: T1, Cls (Homo sapiens, UniProt P09871); assay: Anti-Cl esterase activity, Cls (ATEE hydrolysis); format: biochemical; conditions: hydrolysis of ATEE; read-out: Anti-Cl activity, Cls (50% inhibition)
T1 sequence (P09871 438-688 limits assumed): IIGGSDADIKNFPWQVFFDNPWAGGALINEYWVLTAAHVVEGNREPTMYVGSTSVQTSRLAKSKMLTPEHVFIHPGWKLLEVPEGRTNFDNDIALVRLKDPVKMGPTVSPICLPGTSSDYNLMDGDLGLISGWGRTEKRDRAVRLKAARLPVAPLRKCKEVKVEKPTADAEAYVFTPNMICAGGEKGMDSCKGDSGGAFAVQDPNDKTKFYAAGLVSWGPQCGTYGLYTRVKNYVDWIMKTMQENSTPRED
T1 sequence (P09871 16-437 limits assumed): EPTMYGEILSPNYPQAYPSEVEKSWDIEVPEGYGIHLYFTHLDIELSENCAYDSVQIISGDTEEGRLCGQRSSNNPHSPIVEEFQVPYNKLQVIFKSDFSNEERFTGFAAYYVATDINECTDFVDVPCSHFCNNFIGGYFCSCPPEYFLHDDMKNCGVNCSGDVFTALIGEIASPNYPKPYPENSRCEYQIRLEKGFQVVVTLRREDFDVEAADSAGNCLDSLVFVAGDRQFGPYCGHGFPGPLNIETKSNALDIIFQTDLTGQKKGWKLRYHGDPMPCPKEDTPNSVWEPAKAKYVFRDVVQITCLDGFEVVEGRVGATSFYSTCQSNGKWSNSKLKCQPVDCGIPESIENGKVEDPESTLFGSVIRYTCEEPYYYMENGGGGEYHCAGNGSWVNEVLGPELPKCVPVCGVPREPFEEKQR
Method: The anti-Cl esterase (Clr, Cls) activity was determined according to the method of Okamura et al. [K. Okamura, M. Muramatsu and B. Fujii, Biochem. Biophys. […] The figures in Table 2 have the following meanings:
Cls: Molar concentration of the test compound which inhibits 50% of the ability of Cls to hydrolyse ATEE (acetyltyrosin ethyl ester).

Clr = target: T2, Clr (Homo sapiens, UniProt P00736); assay: Anti-Cl esterase activity, Clr (AAME hydrolysis); format: biochemical; conditions: hydrolysis of AAME; read-out: Anti-Cl activity, Clr (ID50)
T2 sequence (P00736 464-705 limits assumed): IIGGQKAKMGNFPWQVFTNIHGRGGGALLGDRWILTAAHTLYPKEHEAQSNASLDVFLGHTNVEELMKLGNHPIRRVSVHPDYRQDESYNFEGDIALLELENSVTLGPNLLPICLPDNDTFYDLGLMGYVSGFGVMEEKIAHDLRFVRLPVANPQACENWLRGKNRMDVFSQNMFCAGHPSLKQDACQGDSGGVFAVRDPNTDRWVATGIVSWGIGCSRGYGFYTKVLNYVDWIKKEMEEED
T2 sequence (P00736 18-463 limits assumed): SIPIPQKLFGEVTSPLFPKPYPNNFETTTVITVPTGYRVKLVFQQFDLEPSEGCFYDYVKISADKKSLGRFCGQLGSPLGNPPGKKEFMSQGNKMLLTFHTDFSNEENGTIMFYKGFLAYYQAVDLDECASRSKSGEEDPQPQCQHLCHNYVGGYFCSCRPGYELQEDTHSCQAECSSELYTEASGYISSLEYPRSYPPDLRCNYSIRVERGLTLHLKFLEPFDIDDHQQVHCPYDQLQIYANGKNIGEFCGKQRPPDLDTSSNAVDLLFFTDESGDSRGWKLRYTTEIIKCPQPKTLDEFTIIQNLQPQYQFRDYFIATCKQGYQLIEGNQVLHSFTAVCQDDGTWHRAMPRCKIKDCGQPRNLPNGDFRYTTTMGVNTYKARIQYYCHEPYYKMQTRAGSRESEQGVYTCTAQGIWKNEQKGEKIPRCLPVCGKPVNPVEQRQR
Method: The anti-Cl esterase ([…]) activity was determined according to the method of Okamura et al. [K. Okamura, M. Muramatsu and B. Fujii, Biochem. Biophys.

Row | SMILES | Inhibition of complement mediated hemolysis (%) (complement; compound at 1 × 10^-4) | Inhibition of complement mediated hemolysis (%) (complement; compound at 1 × 10^-5) | Inhibition of complement mediated hemolysis (%) (complement; compound at 1 × 10^-6) | Inhibition of complement mediated hemolysis (%) (complement; compound at 1 × 10^-7) | IC50 (Cls) [µM] | IC50 (Clr) [µM]
1 | CC(=O)N[C@@H](CC(C)C)C(=O)N[C@@H](CC(C)C)C(=O)N[C@H](C=O)CCCNC(=N)N [Leupeptin, reference compound] | 97 | 52 | 0 | 0 | – | –
2 | CC(C(=O)Oc1ccc(C(=N)N)cc1C(=O)c1ccccc1)c1ccc(Cl)cc1 (stereo not drawn) [Compound 86] | 100 | 97.1 | 53.6 | 11.0 | – | –
3 | N=C(N)c1ccc(OC(=O)c2ccc(S(N)(=O)=O)cc2)c([N+](=O)[O-])c1 [Compound 68] | 100 | 92.9 | 50.6 | 5.8 | – | –
4 | N=C(N)NCCCCCC(=O)Oc1ccc(C(=N)N)cc1C(=O)c1ccccc1 [Compound 15] | 98.8 | 81.7 | 12.7 | 0 | – | –
5 | COc1cc(C(=N)N)ccc1OC(=O)CCCc1ccc([N+](=O)[O-])cc1 [Compound 82] | 29.8 | 0 | 0 | 0 | > 10 | > 10
6 | COc1cc(C(=N)N)ccc1OC(=O)c1ccc(NC(=N)N)c(C)c1 [Compound 75] | 45.2 | 3.2 | 0 | 0 | 3 | 8
7 | CCCCCCC(=O)Oc1ccc(C(=N)N)cc1C(=O)c1ccccc1 [Compound 4] | 95.0 | 67.2 | 8.7 | 0 | – | –
8 | COc1cc(C(=N)N)ccc1OC(=O)C1CCCCC1 [Compound 9] | – | 16.2 | 2.5 | 0 | – | –
9 | COc1cc(C(=N)N)ccc1OC(=O)CC(C)C [Compound 3, 4-amidino-2-methoxyphenyl isovalerate] | 44.4 | 5.0 | 18.0 | 0 | – | –
10 | COc1cccc(CC(=O)Oc2ccc(C(=N)N)cc2OC)c1 [Compound 43] | 95.0 | 50.4 | 3.7 | 0 | – | –
11 | CC(=O)c1ccc(C(=O)Oc2ccc(C(=N)N)cc2C(=O)c2ccccc2)cc1 [Compound 53] | 87.5 | 25.2 | – | 3.5 | – | –
12 | CN(C(=N)N)c1ccc(C(=O)Oc2ccc(C(=N)N)cc2C(=O)c2ccccc2)cc1 [Compound 78] | 97.4 | 58.8 | 7.0 | 0 | – | > 10
13 | Cc1cccc(C(=O)Oc2ccc(C(=N)N)cc2[N+](=O)[O-])c1 [Compound 36] | 100 | 100 | 100 | 90.4 | – | –
14 | N=C(N)Nc1ccc(C(=O)Nc2cc(C(=N)N)ccc2OC(=O)c2ccc(NC(=N)N)cc2)cc1 [Compound 73, 4-amidino-2-(4-guanidinobenzoylamino)phenyl 4-guanidinobenzoate] | 100 | 100 | 89.9 | 46.1 | – | –
15 | COc1cc(C(=N)N)ccc1OC(=O)CCCc1ccc(N)cc1 [Compound 65, 4-amidino-2-methoxyphenyl 4-(4-aminophenyl)butyrate] | 81.7 | 9.8 | 0 | 0 | – | –
16 | N=C(N)c1ccc(OC(=O)c2ccc(S(N)(=O)=O)cc2)c(C(=O)c2ccccc2)c1 [Compound 67] | 99.2 | 99.2 | 96.9 | 57.5 | – | –
17 | CC(C)Cc1ccc(C(C)C(=O)Oc2ccc(C(=N)N)cc2C(=O)c2ccccc2)cc1 (stereo not drawn) [Compound 40] | 87.5 | 68.1 | 7.8 | 2.0 | – | –
18 | COc1cc(C(=N)N)ccc1OC(=O)CCc1ccccc1 [Compound 32, 4-amidino-2-methoxyphenyl 3-phenylpropionate] | 63.9 | 97.5 | 7.1 | 0 | – | –
19 | CC(=O)Oc1ccc(CCC(=O)Oc2ccc(C(=N)N)cc2C(=O)c2ccccc2)cc1 [Compound 55, 4-amidino-2-benzoylphenyl 3-(4-acetyloxy)phenylpropionate] | 100 | 96.9 | 60.8 | 3.5 | – | –
20 | N=C(N)c1ccc(OC(=O)c2ccc(CN)cc2)c(C(=O)c2ccccc2)c1 [Compound 64] | 100 | 100 | 97.1 | 75.7 | – | –
21 | CNC(=S)Nc1ccc(C(=O)Oc2ccc(C(=N)N)cc2C(=O)c2ccccc2)cc1 [Compound 79] | 95.1 | 96.8 | 81.7 | 48.1 | – | > 10
22 | N=C(N)c1ccc(OC(=O)c2ccc(CNC(=O)OCc3ccccc3)cc2)c(C(=O)c2ccccc2)c1 [Compound 63] | 100 | 100 | 98.0 | 94.5 | – | –
23 | COc1ccccc1C(=O)Oc1ccc(C(=N)N)cc1C(=O)c1ccccc1 [Compound 41] | 66.7 | 9.3 | 0 | 0 | – | –
